Test results reported in US6271220A, “Anti-angiogenic agents” (Allergan Sales, Inc., priority 1999, dated 2001).

Test system: Purified bovine brain tubulin
Assay: in vitro tubulin polymerization assay (turbidimetric)
Format: biochemical
Conditions: GTP-initiated, 30 C, turbidity monitored for 15 minutes, read-out: 1C50, inhibitory effects on tubulin polymerization in vitro
Method: Anti-mitotic activity can be evaluated by testing the ability of a compound of the invention to inhibit tubulin polymerization and microtubule assembly in vitro. The tubulin/microtubule system is instrumental in the formation in the mitotic spindle, making it a prime target for anti-mitotic agents. In vitro tubulin polymerization assays are performed to serve as an estimate of the in vivo cytotoxic activity of designated compounds. Purified bovine brain tubulin (120 μl, 4 mg/ml), 240 μl PME (100 mm piperazine-n, n-bis(2-ethane-sulfonic acid i.e., pipes, ph 6.9, 1 mm MgSO4, 2 mm ethyleneglycol-bis-(β-aminoethyl ether) N, N, N', N'-tetraacetic acid i.e. EGTA and 40 μl dimethyl sulfoxide i.e. DMSO, are combined and transferred to a 1 ml quartz cuvet. Polymerization is initiated by the addition of guanosine triphosphate i.e. GTP, (8 μl, 50 mM) and monitored turbidometrically in a Varian DMS 90 UV-Vis spectrophotometer in a temperature controlled cuvet holder at 30_C. Tubidity increases with increasing tubulin polymerization, giving a false absorbence reading and, over time, a polymerization curve. […] 200 μM solutions (in DMSO) of compounds to be assayed were prepared, and substituted for portions of the DMSO in the polymerization mixture.
The method is given above in-vitro assay for anti-miotic activity.

IC50	Molecule
46.8 µM	CN(C)c1cc2c(ccc1=O)[C@H]1CC[C@]3(C)[C@@H](O)CC[C@H]3[C@@H]1CC2 [Compound 19d, 4-Dimethylamino-A-homo-1,4,5(10)-estratrien-17β-ol-3-one]
9.2 µM	C[C@]12CC[C@@H]3c4ccc(=O)c(N)cc4CC[C@H]3[C@@H]1CC[C@@H]2O [Compound 15b, 4-Amino-A-homo-1,4,5(10)-estratrien-17β-ol-3-one]
60.7 µM	CNc1ccc2c(cc1=O)CC[C@@H]1[C@@H]2CC[C@]2(C)[C@@H](O)CC[C@@H]12 [Compound 19a, 3-Methylamino-A-homo-1(10), 2,4a-estratrien-17β-ol-4-one]
22.8 µM	C[C@]12CC[C@@H]3c4ccc(O)c(=O)cc4CC[C@H]3[C@@H]1CC[C@@H]2O [Compound 16b, A-homo-1(10), 2,4a-estratrien-3,17β-diol-3-one]
29.8 µM	COc1cc2c(ccc1=O)CC[C@@H]1[C@@H]2CC[C@]2(C)[C@@H](O)CC[C@@H]12 [Compound 13, 2-Methoxy-A-Homo-1,4,5(10)-estratrien-17β-ol-3-one]
52 µM	C[C@]12CC[C@@H]3c4ccc([N+](=O)[O-])c(=O)cc4CC[C@H]3[C@@H]1CC[C@@H]2O [Compound 17a, 3-Nitro-A-homo-1(10), 2,4a-estratrien-17β-ol-4-one]
19.4 µM	CNc1cc2c(ccc1=O)[C@H]1CC[C@]3(C)[C@@H](O)CC[C@H]3[C@@H]1CC2 [Compound 19c, 4-Methylamino-A-homo-1,4,5(10)-estratrien-17β-ol-3-one]
7.2 µM	C[C@]12CC[C@@H]3c4cccc(=O)cc4CC[C@H]3[C@@H]1CC[C@@H]2O [Compound 3, A-Homo-1(10), 2,4a-estratrien-17β-ol-4-one]
16.5 µM	C[C@]12CC[C@@H]3c4cc(N)c(=O)ccc4CC[C@H]3[C@@H]1CC[C@@H]2O [Compound 15a, 2-Amino-A-homo-1,4,5(10)-estratrien-17β-ol-3-one]
14.2 µM	C=Cc1ccc2c(cc1=O)CC[C@@H]1[C@@H]2CC[C@]2(C)[C@@H](O)CC[C@@H]12 [Compound 18, 3-Vinyl-A-homo-1(10), 2,4a-estratrien-17β-ol-4-one]
14.4 µM	C[C@]12CC[C@@H]3c4ccc(N)c(=O)cc4CC[C@H]3[C@@H]1CC[C@@H]2O [Compound 14, 3-Amino-A-homo-1(10), 2,4a-estratrien-17β-ol-4-one]
2.8 µM	C[C@]12CC[C@@H]3c4ccc(Cl)c(=O)cc4CC[C@H]3[C@@H]1CC[C@@H]2O [Compound 8b, 3-Chloro -A-Homo-1(10), 2,4a-estratrien-17β ol-4-one]
2.9 µM	C[C@]12CC[C@@H]3c4ccc(Br)c(=O)cc4CC[C@H]3[C@@H]1CC[C@@H]2O [Compound 8a, 3-Bromo-A-Homo-1(10), 2,4a-estratrien-17β-ol-4-one]
14.3 µM	CN(C)c1ccc2c(cc1=O)CC[C@@H]1[C@@H]2CC[C@]2(C)[C@@H](O)CC[C@@H]12 [Compound 19b, 3-Dimethylamino-A-homo-1(10), 2,4a-estratrien-17β-ol-4-one]
27.5 µM	COc1ccc2c(cc1=O)[C@H]1CC[C@]3(C)[C@@H](O)CC[C@H]3[C@@H]1CC2 [Compound 12, 3-Methoxy-A-Homo-1(10), 3,4a-estratrien-17β-ol-2-one]
14.9 µM	C[C@]12CC[C@@H]3c4cc(O)c(=O)ccc4CC[C@H]3[C@@H]1CC[C@@H]2O [Compound 16a, A-homo-1,4,5(10)-estratrien-2, 17β-diol-3-one]
5.9 µM	CCOc1cc2c(ccc1=O)[C@H]1CC[C@]3(C)[C@@H](O)CC[C@H]3[C@@H]1CC2 [Compound 11d, 3-Ethoxy-A-Homo-1,4,5(10)-estratrien-17β-ol-3-one]
8.1 µM	COc1ccc2c(cc1=O)CC[C@@H]1[C@@H]2CC[C@]2(C)[C@@H](O)CC[C@@H]12 [Compound 8c, 3-Methoxy-A-Homo-1(10), 2,4a-estratrien-17β-ol-4-one]
4.4 µM	C[C@]12CC[C@@H]3c4ccc(=O)ccc4CC[C@H]3[C@@H]1CC[C@@H]2O [Compound 6, A-Homo-1,4,5(10)-estratrien-17β-ol-3-one]

Molecule	IC50
4 Chloro-A-Homo-4,5(10)-estradien-2,17β-diol-3-one [Compound 11b]	9.8 µM
COc1cc2c(ccc1=O)[C@H]1CC[C@]3(C)[C@@H](O)CC[C@H]3[C@@H]1CC2 [Compound 11c, 4-Methoxy-A-Homo-1,4,5(10)-estratrien-17β-ol-3-one]	2.1 µM
